For one data set, the target named is T1, Human cyclophilin A (Homo sapiens, UniProt P62937).
T1 construct: made in house
In words: PPIase enzyme assay (chymotrypsin-coupled). It is filed as biochemical. The note with it: 20 °C, mean ± SD of two or more experiments. The method, then:
Human cyclophilin A was purified, and its PPIase activity in the absence or presence of SMCypI was measured as previously described. Briefly, cyclophilin A PPIase activity was measured at 20 °C using the standard chymotrypsin-coupled assay. The assay buffer (25 mM HEPES and 100 mM NaCl, pH 7.8) and purified cyclophilin A were precooled to 4 °C. Then, 5 µL of 50 mg/mL chymotrypsin in 1 mM HCl was added (final reaction volume of 500 µL). The reaction was initiated by adding the peptide substrate Suc-Ala-Ala-Cis-Pro-Phe-pNA to a LiCl/TFE solution with rapid inversion. The absorbance of p-nitroaniline was monitored at 390 nm until the reaction was complete, i.e., when the absorbance reached a plateau (1 min). The final concentration of LiCl in the assay was 20 mM, and TFE was present at a concentration of 4% (v/v). The absorbance was measured every second using a spectrophotometer (BioMate3, Thermo Fischer Scientific). For the inhibition assessment, 5 µL of the tested compound in dimethyl sulfoxide (DMSO) was added to the cyclophilin A solution in the assay buffer. CsA (Sigma‒Aldrich, Saint-Louis, USA) was used as a positive control for PPIase inhibition in all measurements. IC50 values were calculated from dose‒response curves and reported as the mean ± standard deviation of two or more experiments.

Data set [1] concerns FIPV (strain 79-1146) in CRFK cells. In words: FIPV viral titre in cell supernatants, dose response in CRFK cells. The format is cell-based, feline infectious peritonitis virus. The settings on record: for Decrease of FIPV virus titre: 25 µM. As to the method:
(§1) CRFK cells were plated in a 96-well plate at a density of 2 × 10^4 cells/well and incubated for 24 h. Serial tenfold dilutions (10^–1 to 10^–6) of viral supernatants, obtained with or without cyclophilin inhibitors, were added to CRFK cells in eight replicate wells per dilution. The viral inoculum was removed 2 h after infection, and the cells were incubated for 24 h at 37 °C. The cells were fixed via sequential incubation in absolute ethanol followed by 70% ethanol (10 min each at room temperature). FIPV antigens were then detected by immunofluorescence using ascitic fluid from an infected cat (dilution 1/500), followed by incubation with an anti-cat AlexaFluor-488-conjugated secondary antibody (Jackson ImmunoResearch, West Grove, USA). Wells containing fluorescent cells were counted. The 50% infectious dose (ID50) was calculated using the Spearman–Karber method. The results are presented as the means of ≥ 2 experiments performed in triplicate.
(§2) CRFK, PK15 and Vero cells were plated in a 96-well plate at a density of 2 × 10^4 cells/well and incubated for 18 h at 37 °C. The cells were infected with FIPV (MOI of 1), TGEV (MOI of 0.5) or PEDV (MOI of 0.5). Viral inoculation was performed in the presence of F83233, F832 and F833 at concentrations ranging from 0.1 μM to 25 μM for FIPV assays and from 0.78 µM to 12.5 µM for TGEV and PEDV. Two hours after viral inoculation, fresh medium supplemented with the same concentrations of inhibitors was added. The antiviral effect was measured at the peak of viral replication, i.e., after 24 h for FIPV and PEDV infection and after 48 h for TGEV infection. The experiments were repeated twice, and each condition was tested in duplicate or triplicate in independent wells.

Data set [2] relates to TGEV (Purdue strain) in PK15 cells. The experiment in a line: TGEV infection in PK15 cells, immunofluorescence, infected area. The format is cell-based, transmissible gastroenteritis virus. The settings on record: for Effect on TGEV infection: 12.5 µM. The method, then: as §2
(§3) Fixed PK15 and Vero cells were processed similarly. TGEV infection was detected with a homemade anti-spike antibody (called 51.13 [46, 47], dilution 1/10 000) from a mouse and with an anti-mouse AlexaFluor-555-conjugated secondary antibody. PEDV infection was detected with polyclonal antibodies from pigs (a gift from Drs. Y. Blanchard and M. Contrant, Anses, Ploufragan, dilution 1/300) and with an anti-pig AlexaFluor-488-conjugated secondary antibody (SouthernBiotech, Birmingham, USA). […] (J2 from Cell Signaling Technology, Danvers, USA, dilution 1/1000), followed by incubation with an anti-mouse AlexaFluor-555-conjugated secondary antibody. The cells were counterstained with DAPI (Sigma‒Aldrich, final concentration of 1 µg/mL). Secondary antibodies (with the exception of the anti-pig at a 1/400 dilution) were used at a 1/800 dilution and were obtained from Molecular Probes (Thermo Fischer Scientific).
(§4) For each concentration of F832, F833 or F83233, 3 to 5 pictures were randomly taken with an epifluorescence microscope (Zeiss, Oberkochen, Germany) with a 10X objective. The area of staining was measured with ImageJ. The number of nuclei/syncytia (defined as PEDV-positive cells with > 4 nuclei) in PEDV-infected cells was manually counted using ImageJ. Blind analysis was performed to avoid bias.

The next data set deals with CRFK cells. In words: Cytotoxicity assay (CellTiter-Glo). It is filed as cell-based, feline. The settings on record: 24 h, up to 25 µM. As to the method:
The cells were plated in a 96-well plate at a density of 2 × 10^4 cells/well and incubated for 24 h. The culture medium was replaced with serial dilutions of culture medium containing three replicates of different concentrations (ranging from 0.9 μM to 25 μM) of F83233, F832 and F833 molecules, DMSO or media alone as controls. The plates were incubated for 24 h at 37 °C. Cytotoxicity was evaluated with the CellTiter-Glo Cell Viability Assay Kit (Promega, Madison, USA).
For orientation: Cellular ATP, detected with luciferase, serves as a proxy for viable cell number.

In data set [3] the test system is PEDV (CV777 strain) in Vero cells. In words: PEDV infection in Vero cells, immunofluorescence, infected area. The format is cell-based, porcine epidemic diarrhoea virus. The note with it: for Antiviral potency against PEDV: MOI 0.5, 24 h, 0.78-12.5 µM. As to the method:
as §2, §3, §4

In the next data set the test system is FIPV in CRFK cells. The experiment in a line: Time-of-drug addition assay. The format is cell-based, feline infectious peritonitis virus. As to the method:
as §1
CRFK cells were plated in a 96-well plate at a density of 2 × 10^4 cells per well and incubated for 24 h. The cells were infected with FIPV at an MOI of 1 in the presence of 5 µM F83233 (for 0 h post-infection (pi)) or in the presence of DMSO (for the other time points). After viral inoculation, the culture medium was removed, fresh medium containing 5 μM F83233 was added at 1, 3, 6, 9 or 18 h post-infection, and infection was stopped at 24 h post-inoculation. The cell supernatants were stored at −80 °C prior to end-point dilution to measure the effect of F83233 on FIPV infectivity under different conditions. The experiment was repeated three times, and each condition was tested in triplicate.

Data set [4] relates to PEDV (CV777 strain) in Vero cells. The experiment in a line: PEDV-induced syncytium formation and dsRNA staining in Vero cells. The format is cell-based, porcine epidemic diarrhoea virus. The settings on record: 12.5 µM.
Source text: as §3, §4

Data set [5] relates to FIPV (strain 79-1146) in CRFK cells. In words: SMCypI screening for FIPV infection, viral titre by end-point dilution. It is filed as cell-based, feline infectious peritonitis virus. The note with it: 50 µM SMCypI, MOI 1, 24 h. The method, then: CRFK cells were plated in a 96-well plate at a density of 2 × 10^4 cells/well and incubated for 24 h. The cells were infected for 1 h with FIPV at a multiplicity of infection (MOI) of 1 in the presence of 50 µM or 10 µM SMCypI or CsA, respectively. The inoculum was removed after 1 h, and inhibitors (50 μM SMCypI or 10 μM CsA) were added for 24 supplemental hours. The supernatants were collected and stored at −80 °C prior to the end-point dilution assays.
as §1, with “The results are presented as the means of ≥ 2 experiments performed in triplicate.” left out

Setting [6] is: 5 µM F83233, FIPV MOI 1, CRFK cells.

T1 sequence (P62937 whole entry): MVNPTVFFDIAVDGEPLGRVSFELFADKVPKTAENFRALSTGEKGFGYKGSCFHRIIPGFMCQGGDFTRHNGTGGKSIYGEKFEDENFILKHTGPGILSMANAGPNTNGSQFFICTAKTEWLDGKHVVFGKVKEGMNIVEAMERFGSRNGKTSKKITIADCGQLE

Broadly, the IC50 is the concentration at which inhibition is half-maximal. On to `Nc1ccc(CNC(=O)NC(C(=O)N2CCCC2c2cccc3ccsc23)C2CCCCC2)cc1` (stereo not shown) [Compound F833], for which the IC50 at Human cyclophilin A was 600 ± 100 nM. For the same molecule, the “Decrease of FIPV virus titre” value in data set [1] (24 h) is “≈ 0.5 Log10”. Further, the “Effect on TGEV infection” value in data set [2] (MOI 0.5, 48 h) is recorded as “no significant effect”. The Cytotoxicity entry in the data set with CRFK cells is listed as “low cytotoxicity”. The “Antiviral potency against PEDV” value in data set [3] was “modest antiviral potency”.

Molecule `O=C(NCc1ccc2c(c1)CCCN2)NC(C(=O)N1CCCC1c1cccc2ccsc12)C1CCCCC1` (stereo not shown) [Compound F83233] gave an IC50 on Human cyclophilin A of 700 ± 500 nM. In the data set with FIPV in CRFK cells (setting [6]), the “Decrease of antiviral efficiency between addition at 1 and 3 h post-infection” value is “more than 1 Log10”; the “Time of addition giving the maximal antiviral effect” value was “simultaneously with the virus or 1 h later”. In the data set on FIPV in CRFK cells (5 µM F83233 added 18 h post-infection), the “Inhibition of FIPV titre compared with DMSO control” value is listed as “≈ 1 Log10”. Besides, the “Reduction in FIPV viral titre” value in data set [1] (5 µM, 24 h) is reported as “approximately 2 Log10”. For the same molecule, the FIPV viral reduction entry in data set [1] (10 µM) was “approximately 3 Log10”. Further, the “Maximal inhibitory effect, decrease of FIPV titre” value in data set [1] (12.5 µM, 24 h) is recorded as 3–4 Log10. For the same molecule, the “Decrease of FIPV virus titre” value in data set [1] (24 h) was “≈ 3 Log10”. In addition, in data set [4], the “Double-strand RNA staining (viral genome replication) in syncytia” value is listed as “markedly impacted”; the “Size of PEDV-induced syncytia and number of nuclei per syncytium” value is given as “drastically decreased”. Moreover, the “Effect on TGEV-infected cells” value in data set [2] (6.25 µM and 12.5 µM, 48 h) is on record as “almost complete disappearance of infected cells”. The “Concentration at which active against TGEV” value in data set [2] (MOI 0.5, 48 h) was determined as 1.6 µM. Moreover, the Cytotoxicity entry with CRFK cells was “low cytotoxicity”. Also, the “Effect on PEDV infection” value in data set [3] (3.125 µM, 24 h) is listed as “important reduction in infection”. Moreover, the “Inhibition of FIPV titre” value in data set [5] is reported as “more than 4 Log10”.

Molecule `O=C(NCc1ccc2c(c1)CCCN2)NC(C(=O)N1CCCC1c1cccc2ccsc12)c1ccccc1` (stereo not shown) [Compound F832] had an IC50 at Human cyclophilin A of 400 ± 90 nM. For the same molecule, the “Decrease of FIPV virus titre” value in data set [1] (24 h) is recorded as “≈ 0.5 Log10”. In addition, in data set [2] (MOI 0.5, 48 h), the “Effect on TGEV infection” value is “no significant effect”. The Cytotoxicity entry with CRFK cells was “low cytotoxicity”. Moreover, the “Antiviral potency against PEDV” value in data set [3] was “modest antiviral potency”.
